Assay results from ChEMBL document CHEMBL3286094, “Synthesis and biological evaluation of novel bisbenzimidazoles as Escherichia coli topoisomerase IA inhibitors and potential antibacterial agents” (J Med Chem, 2014).
Values after ≈ are worked out from the molar mass of the structure shown. Active and inactive are the calls of the source. The rule behind the calls is not given here.

How the values were obtained:
Escherichia coli [1] = test: Antibacterial activity against ampicillin/ciprofloxacin/gentamicin/tetracycline-resistant Escherichia coli 555 assessed as growth inhibition after 18 to 24 hrs by broth microdilution method; assay type: functional
Escherichia coli [2] = test: Bactericidal activity against ciprofloxacin-resistant Escherichia coli 72 by agar plating method; assay type: functional
Escherichia coli [3] = test: Bactericidal activity against chloroamphenicol/ampicillin/kanamycin/trimethoprim/ciprofloxacin/nalidixic acid-resistant Escherichia coli 85 by agar plating method; assay type: functional
Escherichia coli [4] = test: Bactericidal activity against ampicillin/tetracycline/gentamicin-resistant Escherichia coli 451 by agar plating method; assay type: functional
Escherichia coli [5] = test: Bactericidal activity against chloramphenicol/ampicillin/trimethoprim/ciprofloxacin/nalidixic acid-resistant Escherichia coli 59 by agar plating method; assay type: functional
Escherichia coli [6] = test: Bactericidal activity against ampicillin/kanamycin/trimethoprim/tetracyclin/ciprofloxacin/nalidixic acid-resistant Escherichia coli 81 by agar plating method; assay type: functional
Escherichia coli [7] = test: Bactericidal activity against chloramphenicol/ampicillin/kanamycin/trimethoprim/ciprofloxacin/nalidixic acid-resistant Escherichia coli 132 by agar plating method; assay type: functional
Escherichia coli [8] = test: Bactericidal activity against ampicillin/ciprofloxacin/gentamicin/tetracycline-resistant Escherichia coli 555 by agar plating method; assay type: functional
Escherichia coli [9] = test: Inhibition of Escherichia coli DNA gyrase using relaxed pHOT1 plasmid DNA as substrate assessed as inhibition of DNA supercoiling up to 100 uM after 30 mins by agarose gel electrophoresis
Escherichia coli [10] = test: Antibacterial activity against Escherichia coli DH5[alpha] assessed as growth inhibition after 18 to 24 hrs by broth microdilution method; assay type: functional
Escherichia coli [11] = test: Antibacterial activity against Escherichia coli ATCC 25922 assessed as growth inhibition after 18 to 24 hrs by broth microdilution method; assay type: functional
Escherichia coli [12] = test: Bactericidal activity against Escherichia coli ATCC 25922 by agar plating method; assay type: functional
Escherichia coli [13] = test: Antibacterial activity against ciprofloxacin-resistant Escherichia coli 72 assessed as growth inhibition after 18 to 24 hrs by broth microdilution method; assay type: functional
Escherichia coli [14] = test: Antibacterial activity against ampicillin/trimethoprim/nalidixic acid-resistant Escherichia coli 118 assessed as growth inhibition after 18 to 24 hrs by broth microdilution method; assay type: functional
Escherichia coli [15] = test: Antibacterial activity against chloroamphenicol/ampicillin/kanamycin/trimethoprim/ciprofloxacin/nalidixic acid-resistant Escherichia coli 85 assessed as growth inhibition after 18 to 24 hrs by broth microdilution method; assay type: functional
Escherichia coli [16] = test: Antibacterial activity against gentamicin/kanamycin/tetracycline/nalidixic acid-resistant Escherichia coli 360 assessed as growth inhibition after 18 to 24 hrs by broth microdilution method; assay type: functional
Escherichia coli [17] = test: Antibacterial activity against ampicillin/tetracycline/gentamicin-resistant Escherichia coli 451 assessed as growth inhibition after 18 to 24 hrs by broth microdilution method; assay type: functional
Escherichia coli [18] = test: Antibacterial activity against ampicillin/kanamycin/trimethoprim/tetracyclin/ciprofloxacin/nalidixic acid-resistant Escherichia coli 81 assessed as growth inhibition after 18 to 24 hrs by broth microdilution method; assay type: functional
Escherichia coli [19] = test: Antibacterial activity against chloramphenicol/ampicillin/kanamycin/trimethoprim/ciprofloxacin/nalidixic acid-resistant Escherichia coli 132 assessed as growth inhibition after 18 to 24 hrs by broth microdilution method; assay type: functional
Escherichia coli [20] = test: Antibacterial activity against chloramphenicol/ampicillin/kanamycin/trimethoprim/ciprofloxacin/nalidixic acid-resistant Escherichia coli 151 assessed as growth inhibition after 18 to 24 hrs by broth microdilution method; assay type: functional
Escherichia coli [21] = test: Antibacterial activity against ampicillin/chloramphenicol/ciprofloxacin/gentamicin/tetracycline-resistant Escherichia coli 401 assessed as growth inhibition after 18 to 24 hrs by broth microdilution method; assay type: functional
Escherichia coli [22] = test: Bactericidal activity against ampicillin/tetracycline-resistant Escherichia coli IP18 isolated from water source by agar plating method
Escherichia coli [23] = test: Bactericidal activity against tetracycline/trimethoprim-resistant Escherichia coli IST isolated from water source by agar plating method
Escherichia coli [24] = test: Bactericidal activity against ampicillin/tetracycline/piperacillin-resistant Escherichia coli WB31 isolated from water source by agar plating method
Escherichia coli [25] = test: Bactericidal activity against ampicillin/trimethoprim/piperacillin-resistant Escherichia coli MKNJ isolated from water source by agar plating method
Escherichia coli [26] = test: Antibacterial activity against multidrug-resistant Escherichia coli IP9 isolated from water source assessed as growth inhibition after 18 to 24 hrs by broth microdilution method
Escherichia coli [27] = test: Antibacterial activity against ampicillin/tetracycline-resistant Escherichia coli IP18 isolated from water source assessed as growth inhibition after 18 to 24 hrs by broth microdilution method
Escherichia coli [28] = test: Antibacterial activity against tetracycline/trimethoprim-resistant Escherichia coli IST isolated from water source assessed as growth inhibition after 18 to 24 hrs by broth microdilution method
Escherichia coli [29] = test: Bactericidal activity against ampicillin/trimethoprim/cefazolinl/piperacillin/cefuroxime/cefoxitine/cefepime/cefotaxime-resistant Escherichia coli KP21 isolated from water source by agar plating method
Escherichia coli [30] = test: Bactericidal activity against cefazolinl/ampicillin/piperacillin/cefuroxime/cefepime/cefotaxime/tetracycline/trimethoprim-resistant Escherichia coli KK16 isolated from water source by agar plating method
Escherichia coli [31] = test: Antibacterial activity against ampicillin/trimethoprim/piperacillin-resistant Escherichia coli MKNJ isolated from water source assessed as growth inhibition after 18 to 24 hrs by broth microdilution method
Escherichia coli [32] = test: Antibacterial activity against ampicillin/chloramphenicol/tetracycline/trimethoprim/ciprofloxacin-resistant Escherichia coli KK45 isolated from water source assessed as growth inhibition after 18 to 24 hrs by broth microdilution method
Escherichia coli [33] = test: Antibacterial activity against ampicillin/trimethoprim/cefazolinl/piperacillin/cefuroxime/cefoxitine/cefepime/cefotaxime-resistant Escherichia coli KP21 isolated from water source assessed as growth inhibition after 18 to 24 hrs by broth microdilution method
Escherichia coli [34] = test: Antibacterial activity against cefazolinl/ampicillin/piperacillin/cefuroxime/cefepime/cefotaxime/tetracycline/ciprofloxacin-resistant Escherichia coli NG3 isolated from water source assessed as growth inhibition after 18 to 24 hrs by broth microdilution method
Escherichia coli [35] = test: Antibacterial activity against cefazolinl/ampicillin/piperacillin/cefuroxime/cefepime/cefotaxime/tetracycline/trimethoprim-resistant Escherichia coli KK16 isolated from water source assessed as growth inhibition after 18 to 24 hrs by broth microdilution method

For `CCCN1CCN(c2ccc3nc(-c4ccc5nc(-c6ccc(OC)c(OC)c6)[nH]c5c4)[nH]c3c2)CC1`, the MIC50 (Escherichia coli [1]) was 16 µg/mL (≈ 32.2 µM), the MIC90 (Escherichia coli [1]) was 29.8 µg/mL (≈ 60 µM) and the MBC (Escherichia coli [2]) was 4 µg/mL (≈ 8.05 µM). The MBC (Escherichia coli [3]) was 16 µg/mL (≈ 32.2 µM), the MBC (Escherichia coli [4]) was 8 µg/mL (≈ 16.1 µM) and the MBC (Escherichia coli [5]) was 8 µg/mL (≈ 16.1 µM). The MBC (Escherichia coli [6]) was 16 µg/mL (≈ 32.2 µM), the MBC (Escherichia coli [7]) was 128 µg/mL (≈ 258 µM) and the MBC (Escherichia coli [8]) was 32 µg/mL (≈ 64.4 µM). For the same compound, the inhibition (Escherichia coli [9]) was “inactive”, the MIC50 (Escherichia coli [10]) was 2 µg/mL (≈ 4.03 µM) and the MIC90 (Escherichia coli [10]) was 3.2 µg/mL (≈ 6.44 µM). For the same compound, the MIC50 (Escherichia coli [11]) was 8 µg/mL (≈ 16.1 µM), the MIC90 (Escherichia coli [11]) was 12.5 µg/mL (≈ 25.2 µM) and the MBC (Escherichia coli [12]) was 16 µg/mL (≈ 32.2 µM). The MIC50 (Escherichia coli [13]) was 2 µg/mL (≈ 4.03 µM), the MIC90 (Escherichia coli [13]) was 3.4 µg/mL (≈ 6.85 µM) and the MIC50 (Escherichia coli [14]) was 2 µg/mL (≈ 4.03 µM). The MIC90 (Escherichia coli [14]) was 3.2 µg/mL (≈ 6.44 µM), the MIC50 (Escherichia coli [15]) was 8 µg/mL (≈ 16.1 µM) and the MIC90 (Escherichia coli [15]) was 15.2 µg/mL (≈ 30.6 µM). For the same compound, the MIC50 (Escherichia coli [16]) was 8 µg/mL (≈ 16.1 µM), the MIC90 (Escherichia coli [16]) was 15.2 µg/mL (≈ 30.6 µM) and the MIC50 (Escherichia coli [17]) was 4 µg/mL (≈ 8.05 µM). For the same compound, the MIC90 (Escherichia coli [17]) was 7.6 µg/mL (≈ 15.3 µM), the MIC50 (Escherichia coli [18]) was 8 µg/mL (≈ 16.1 µM) and the MIC90 (Escherichia coli [18]) was 14.5 µg/mL (≈ 29.2 µM). It also gave an MIC50 (Escherichia coli [19]) of 64 µg/mL (≈ 129 µM), an MIC90 (Escherichia coli [19]) of 118 µg/mL (≈ 238 µM) and an MIC50 (Escherichia coli [20]) of 8 µg/mL (≈ 16.1 µM). For the same compound, the MIC90 (Escherichia coli [20]) was 15.1 µg/mL (≈ 30.4 µM), the MIC50 (Escherichia coli [21]) was 4 µg/mL (≈ 8.05 µM) and the MIC90 (Escherichia coli [21]) was 7.2 µg/mL (≈ 14.5 µM). For the same compound, the MBC (Escherichia coli [22]) was 8 µg/mL (≈ 16.1 µM), the MBC (Escherichia coli [23]) was 16 µg/mL (≈ 32.2 µM) and the MBC (Escherichia coli [24]) was 16 µg/mL (≈ 32.2 µM). The MBC (Escherichia coli [25]) was 8 µg/mL (≈ 16.1 µM), the MIC50 (Escherichia coli [26]) was 8 µg/mL (≈ 16.1 µM) and the MIC90 (Escherichia coli [26]) was 15.4 µg/mL (≈ 31 µM). The MIC50 (Escherichia coli [27]) was 4 µg/mL (≈ 8.05 µM), the MIC90 (Escherichia coli [27]) was 7.6 µg/mL (≈ 15.3 µM) and the MIC50 (Escherichia coli [28]) was 8 µg/mL (≈ 16.1 µM). It also gave an MIC90 (Escherichia coli [28]) of 14.9 µg/mL (≈ 30 µM), an MBC (Escherichia coli [29]) of 16 µg/mL (≈ 32.2 µM) and an MBC (Escherichia coli [30]) of 4 µg/mL (≈ 8.05 µM). It also gave an MIC50 (Escherichia coli [31]) of 4 µg/mL (≈ 8.05 µM), an MIC90 (Escherichia coli [31]) of 7.6 µg/mL (≈ 15.3 µM) and an MIC50 (Escherichia coli [32]) of 4 µg/mL (≈ 8.05 µM). The MIC90 (Escherichia coli [32]) was 7.7 µg/mL (≈ 15.5 µM), the MIC50 (Escherichia coli [33]) was 8 µg/mL (≈ 16.1 µM) and the MIC90 (Escherichia coli [33]) was 14.8 µg/mL (≈ 29.8 µM). For the same compound, the MIC50 (Escherichia coli [34]) was 4 µg/mL (≈ 8.05 µM), the MIC90 (Escherichia coli [34]) was 7.6 µg/mL (≈ 15.3 µM) and the MIC50 (Escherichia coli [35]) was 2 µg/mL (≈ 4.03 µM). The MIC90 (Escherichia coli [35]) was 3.7 µg/mL (≈ 7.45 µM).
